Source: ChEMBL document CHEMBL1139102, “Comparison of N,N'-diarylsquaramides and N,N'-diarylureas as antagonists of the CXCR2 chemokine receptor” (Bioorg Med Chem Lett, 2007)
Converted amounts (≈) assume the structure as drawn. “And” between values parts separate entries of the source, which are not always exact repeats. Identical values can stand only once.

How the values were obtained:
[1] = target: T1, C-X-C chemokine receptor type 2 (Homo sapiens, UniProt P25025); experiment: Displacement of [125I]IL8 from human recombinant CXCR2 expressed in CHO cells; assay type: cell-based
T1 sequence (P25025 whole entry): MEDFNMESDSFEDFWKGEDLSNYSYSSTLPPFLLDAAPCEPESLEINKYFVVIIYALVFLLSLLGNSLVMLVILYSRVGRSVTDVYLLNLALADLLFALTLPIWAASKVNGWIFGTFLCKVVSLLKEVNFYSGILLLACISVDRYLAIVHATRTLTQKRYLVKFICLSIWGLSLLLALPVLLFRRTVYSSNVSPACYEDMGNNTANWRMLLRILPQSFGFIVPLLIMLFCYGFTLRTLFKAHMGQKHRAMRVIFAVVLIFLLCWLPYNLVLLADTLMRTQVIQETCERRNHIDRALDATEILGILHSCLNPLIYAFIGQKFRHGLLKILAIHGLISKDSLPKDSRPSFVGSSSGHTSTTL

[2] = Dissociation constant, pKa at pH 7.4; assay type: physicochemical
[3] = Aqueous solubility in phosphate buffer at pH 7.4; assay type: physicochemical
[4] = Clearance in Sprague-Dawley rat at 4 umol/kg, iv and 8 umol/kg, po; assay type: ADME, organism-based; settings: in vivo
[5] = Volume of distribution at steady state in Sprague-Dawley rat at 4 umol/kg, iv and 8 umol/kg, po; assay type: ADME, organism-based; settings: in vivo, read-out: Vdss
in vivo = settings: Sprague-Dawley, rat, po, 8 umol/kg

| IC50 [1] | solubility [3] | SMILES | also measured |
| --- | --- | --- | --- |
| 235 nM | – | O=c1c(O)c(Nc2ccccc2)/c1=N/c1ccccc1O | pKa [2]: 8.6 |
| 358 nM | – | O=c1c(Nc2ccccc2)c(Nc2c(O)cccc2[N+](=O)[O-])c1=O | – |
| 52 nM | – | O=c1c(Nc2ccccc2)c(Nc2cc(Cl)c([N+](=O)[O-])cc2O)c1=O | – |
| 308 nM | – | Cc1ccc(O)c(Nc2c(Nc3ccccc3)c(=O)c2=O)c1 | – |
| 10 nM | 138 µM | CN1CCCN(S(=O)(=O)c2c(Cl)ccc(Nc3c(Nc4ccccc4Br)c(=O)c3=O)c2O)CC1.Cl | clearance [4]: 4 mL/min/kg; Vd [5]: 0.24 L/kg |
| 22 nM | – | O=c1c(O)c(Nc2ccc([N+](=O)[O-])cc2O)/c1=N/c1ccccc1 | – |
| 37 nM | – | O=c1c(Nc2ccc([N+](=O)[O-])cc2O)c(Nc2ccccc2Br)c1=O | – |
| > 30000 nM | – | O=C(Nc1ccccc1)Nc1cc(Cl)ccc1O | – |
| 20 nM | 160 µM | CN1CCCN(S(=O)(=O)c2c(Cl)ccc(Nc3c(Nc4ccccc4Cl)c(=O)c3=O)c2O)CC1.Cl | clearance [4]: 4 mL/min/kg; Vd [5]: 0.31 L/kg |
| 13 nM | 44 µM | CN1CCN(S(=O)(=O)c2c(F)ccc(Nc3c(Nc4ccccc4Br)c(=O)c3=O)c2O)CC1.O=C(O)C(F)(F)F | – |
| 44 nM | 178 µM | CN1CCCN(C(=O)c2cccc(Nc3c(Nc4ccccc4)c(=O)c3=O)c2O)CC1.O=C(O)C(F)(F)F | clearance [4]: 15 mL/min/kg; Vd [5]: 0.33 L/kg |
| 51 nM | – | O=c1c(Nc2ccccc2O)c(Nc2ccccc2Br)c1=O | – |
| > 30000 nM | – | Cc1ccc(O)c(NC(=O)Nc2ccccc2)c1 | – |
| 15 nM | – | N#Cc1ccc(Nc2c(O)c(=O)/c2=N\c2ccccc2)c(O)c1 | pKa [2]: 7.09 |
| 32 nM | 3 µM (≈ 1.18 µg/mL) | O=c1c(Nc2ccc(Cl)cc2O)c(Nc2ccccc2Br)c1=O | – |
| 32 nM | – | N#Cc1cccc(Nc2c(Nc3ccccc3)c(=O)c2=O)c1O | – |
| 15 nM and 36 nM | 14 µM (≈ 5.38 µg/mL) | N#Cc1ccc(Nc2c(Nc3ccccc3Br)c(=O)c2=O)c(O)c1 | clearance [4]: 15 mL/min/kg; Vd [5]: 0.15 L/kg |

| IC50 [1] | solubility [3] | SMILES | also measured |
| --- | --- | --- | --- |
| > 30000 nM | – | O=C(Nc1ccccc1)Nc1c(O)cccc1[N+](=O)[O-] | – |
| – | 7 µM | Cl.O=c1c(Nc2ccccc2)c(Nc2ccc(Cl)c(S(=O)(=O)N3CCC(N4CCCCC4)CC3)c2O)c1=O | clearance [4]: 1.2 mL/min/kg; Vd [5]: 0.24 L/kg; bioavailability (in vivo): 5% |
| 28 nM | 143 µM (≈ 70.2 µg/mL) | O=C(c1c(Cl)ccc(Nc2c(Nc3ccccc3Br)c(=O)c2=O)c1O)N1CCCC1 | – |
| – | 86 µM (≈ 38.3 µg/mL) | O=C(c1cccc(Nc2c(Nc3ccccc3C(F)(F)F)c(=O)c2=O)c1O)N1CCCC1 | clearance [4]: 45 mL/min/kg; Vd [5]: 0.66 L/kg |
| 8 nM | 78 µM | CCCc1ccccc1Nc1c(Nc2ccc(Cl)c(S(=O)(=O)N3CCN(CC)CC3)c2O)c(=O)c1=O.O=C(O)C(F)(F)F | clearance [4]: 7 mL/min/kg; Vd [5]: 0.89 L/kg |
| 54 nM | – | O=c1c(Nc2ccccc2)c(Nc2cc(Cl)ccc2O)c1=O | – |
| 25000 nM | – | Cc1ccc(NC(=O)Nc2ccccc2)c(O)c1 | – |
| 27 nM | 121 µM | CN1CCN(C(=O)c2cccc(Nc3c(Nc4ccccc4)c(=O)c3=O)c2O)CC1.O=C(O)C(F)(F)F | – |
| 14 nM | 88 µM (≈ 31.5 µg/mL) | NC(=O)c1c(Cl)ccc(Nc2c(Nc3ccccc3)c(=O)c2=O)c1O | – |
| 15 nM | 10 µM (≈ 4.15 µg/mL) | Cc1ccccc1Nc1c(Nc2ccc(C)c(S(=O)(=O)N(C)C)c2O)c(=O)c1=O | clearance [4]: 4 mL/min/kg; Vd [5]: 0.25 L/kg |
| > 30000 nM | – | Cc1cccc(O)c1NC(=O)Nc1ccccc1 | – |
| 1720 nM | – | Cc1cccc(O)c1Nc1c(Nc2ccccc2)c(=O)c1=O | – |
| 205 nM | – | Cc1ccc(Nc2c(Nc3ccccc3)c(=O)c2=O)c(O)c1 | – |
| > 30000 nM | – | O=C(Nc1ccccc1)Nc1ccccc1O | – |
| 8 nM | 73 µM (≈ 33 µg/mL) | COCCNS(=O)(=O)c1c(Cl)ccc(Nc2c(Nc3ccccc3)c(=O)c2=O)c1O | clearance [4]: 0.6 mL/min/kg; Vd [5]: 0.14 L/kg; bioavailability (in vivo): 23% |
| 276 nM | – | N#Cc1cccc(NC(=O)Nc2ccccc2)c1O | – |
| > 9000 nM | – | O=C(Nc1ccccc1O)Nc1ccccc1Br | – |

| SMILES | IC50 [1] | solubility [3] | also measured |
| --- | --- | --- | --- |
| O=C(Nc1ccccc1)Nc1cc(Cl)c([N+](=O)[O-])cc1O | 950 nM | – | – |
